# Results published in US20180221433A1, “ANGIOTENSINS IN MUSCULAR DYSTROPHY” (University of Iowa Research Foundation, priority 2013, published 2018).
# Positions of bridges follow the written chain, without caps; N, C: chain ends. No end group written: not given here.
# Experiments:
# Format in all cases: in vivo, mouse
# Sgcd −/− mice [1] = experiment: H&E and Masson's Trichrome stain of quadriceps muscle for fibrosis, Example 4; settings: osmotic minipump 8 weeks, TXA127 500, Pancyte 50, TXA301 50 μg/kg/day, vs saline, FIG. 10
# Method: (§1) A total of 32 Sgcd −/− mice were randomly assigned to one of four treatment groups (n=8 in each): a saline group (vehicle) a TXA127 group, a Pancyte group, and a TXA301 group. The doses of Angiotensin (1-7) peptides administered was 500 μg/kg/day for TXA127, 50 μg/kg/day for Pancyte, and 50 μg/kg/day for TXA301. Osmotic minipumps containing the treatments were implanted in mice at 28-35 weeks of age, and the angiotensin (1-7) peptides were infused for 8 weeks. For the last three weeks of treatment, the mice were put in cages with running wheels attached to calculate the amount of voluntary exercise performed by each animal. Total number of wheel revolutions (distance ran) were collected daily. At the end of 8 weeks of treatment, quadriceps muscles were harvested from the mice for histopathological and oxidative stress analyses.
# An H&E stain was used to examine the dystrophic morphology of the quadriceps muscles of the mice.
# Sgcd −/− mice [2] = experiment: Voluntary running-wheel exercise in Sgcd −/− mice, Example 4; settings: for amount of voluntary exercise performed (average running-wheel revolutions, weeks 6, 7 and 8) / amount of exercise performed (accumulated totals over the three week test period): osmotic minipump 8 weeks, vs saline; for amount of voluntary exercise performed (average running-wheel revolutions, weeks 6, 7 and 8): TXA127 500, Pancyte 50, TXA301 50 μg/kg/day, FIG. 8; for amount of exercise performed (accumulated totals over the three week test period): TXA127 500, TXA301 50 μg/kg/day, FIG. 9
# Excerpt: In this Example, Sarcoglycan delta deficient mice (Sgcd−/−), an established mouse model of Limb Girdle Muscular Dystrophy-2F (LGMD-2F), was used to examine the effects of angiotensin (1-7) peptides on the progression of functional impairment and fibrosis in sufferers of the disease.
# as §1
# Sgcd −/− mice [3] = experiment: Oxidative stress by DHE stain of quadriceps muscle, Example 4; settings: TXA127 500 μg/kg/day for 8 weeks, vs saline, FIG. 11
# Method: as §1
# Dihydroethidium (DHE) was used to examine the degree of oxidative stress in treated Sgcd−/− mice. […] For quantification of degree of fibrosis, an average of six-sections of skeletal quadriceps muscle were obtained from each mouse. An intensity of fluorescence for each mouse was quantified using NIH ImageJ software and normalized to a percentage of the average fluorescence intensity measured in saline-treated Sgcd−/− mice.
# Sgcd −/− mice [4] = experiment: Oxidative stress (superoxide) by dihydroethidium (DHE) fluorescence in skeletal muscle, Example 2; settings: Ang-(1-7) 300 ng/kg/min for 8 weeks, vs untreated Sgcd −/−, FIG. 7
# Method: (§2) Data were collected over 2-3 days, and 24 hour averages were calculated. Separate groups of control and Sgcd−/− mice were infused with Ang-(1-7) (300 ng/kg/min) for 8 weeks beginning at 3 weeks of age. Measurements were obtained in these mice using the same protocols as described above.
# (§3) To assess skeletal muscle phenotypes, paraffin sections of skeletal muscle (quadriceps) were stained with Masson Trichrome to assess histopathology and fibrosis. Frozen sections of skeletal muscle were incubated with polyclonal anti-δ and anti-β sarcoglycan primary antibody, a nuclear stain, and Alexa Fluor 488. AT1R (Ang type 1 receptor) and Mas (Ang(1-7) receptor) were detected with rabbit anti-AT1R, and anti-Mas nuclear stains, and secondary antibody goat anti-rabbit IgG. Oxidative stress (O2.^−) was measured by dihydrocthidium (DHE) fluorescence.
# (§4) Data in this example are presented as ±SE. Results were analyzed by ANOVA, and paired and unpaired t-tests as appropriate, significance was determined at p<0.05.
# Sgcd −/− mice [5] = experiment: Baroreflex sensitivity and cardiac/vasomotor autonomic tone in Sgcd −/− mice; settings: Ang-(1-7) 300 ng/kg/min for 8 weeks
# Method: (§5) To examine the effects of angiotensin (1-7) peptides on disruption of normal motor activity in Sgcd −/− mice, conscious, young (10-15 wks) Sgcd−/− and control C57BL6 mice were analyzed by radio-telemetry. Radio-telemeters were implanted into the aorta via the left carotid artery under ketamine-xylazine anesthesia when mice were 10 weeks of age. Following recovery, blood pressure, heart rate and locomotor activity were measured 24 hours/day. Blood pressure measurements were sampled at 2000 Hz for 1 hour periods to enable beat-to-beat measurements of systolic arterial pressure and pulse interval (PI). Baroreflex control of heart rate was assessed from spontaneous fluctuations in systolic blood pressure and pulse interval using known sequence techniques.
# Baroreflex sensitivity was calculated from spontaneous fluctuations in systolic blood pressure and pulse interval using the sequence technique. Specifically, baroreflex sensitivity was calculated as the average slope of sequences of 4 or more consecutive blood pressure pulses where the change in blood pressure and pulse interval are positively correlated (r^2>0.85).
# Cardiac sympathetic tone and parasympathetic tone were calculated from heart rate responses to the β-adrenergic receptor blocker propranolol and the muscarinic cholinergic receptor blocker methylatropine, respectively. Specifically, resting cardiac sympathetic and parasympathetic (vagal) tone was estimated from heart rate responses to propranolol (1 μg/g, IP) and methylatropine (1 μg/g, IP), respectively. Vasomotor sympathetic tone was calculated from the decrease in mean arterial blood pressure in response to injection of the ganglionic blocker chlorisondamine (12 μg/g, IP).
# as §2, §4
# Sgcd −/− mice [6] = experiment: Radio-telemetry of blood pressure, heart rate and locomotor activity in Sgcd −/− mice
# Excerpt: In this Example, Sgcd −/− mice, a known model of limb-girdle muscular dystrophy, were used to assess the effects of angiotensin (1-7) peptides on skeletal muscle fibrosis, blood pressure, heart rate, cardiac activity, baroreflex sensitivity, oxidative stress, AT1R receptor expression, and resting cardiac and vagal sympathetic tone. Sgcd −/− mice are missing a key component of the sarcoglycan complex, specifically, they are missing a link between the F-actin cytoskeleton and the extracellular matrix. This defect causes muscle wasting and weakness due to a reduction in muscle fiber integrity and dysregulation in cell signaling in muscle cells. It has been previously shown that this defect results in a reduction of locomotor activity and autonomic dysfunction at a young age. The autonomic dysfunction is thought to lead to cardiac dysfunction later in life.
# as §5
# Osmotic minipumps (Alzet) were implanted with either Ang (1-7) (also referred to as “TXA127”) or vehicle in mice pups at 3 weeks of age, under ketamine-xylazine anesthesia.
# as §2, §4
# [7] = tested on: angiotensin type 1 receptors (AT1R); experiment: AT1R expression in skeletal muscle sections (Alexa Fluor 488 staining); settings: Sgcd −/− mice, Ang-(1-7) 300 ng/kg/min for 8 weeks; vs untreated Sgcd −/−; FIG. 6
# Method: as §2, §3
# Sgcd −/− mice [8] = experiment: Masson Trichrome stain of skeletal muscle (quadriceps) for fibrosis, Example 2
# Method: as §2, §3, §4
Substance,fibrosis in skeletal muscle (quadriceps) (Sgcd −/− mice [1]),"amount of voluntary exercise performed (average running-wheel revolutions, weeks 6, 7 and 8) (Sgcd −/− mice [2])",amount of exercise performed (accumulated totals over the three week test period) (Sgcd −/− mice [2]),oxidative stress (DHE fluorescence intensity) (Sgcd −/− mice [3]),levels of superoxide (DHE fluorescence) (Sgcd −/− mice [4]),baroreflex sensitivity (decrease in Sgcd −/− mice) (Sgcd −/− mice [5]; FIG. 4A),"vasomotor sympathetic tone (increase in Sgcd −/− mice) (Sgcd −/− mice [5]; blood pressure response to chlorisondamine, FIG. 4D)","cardiac vagal tone (decrease in Sgcd −/− mice) (Sgcd −/− mice [5]; heart rate response to methylatropine, FIG. 4B)","cardiac sympathetic tone (increase in Sgcd −/− mice) (Sgcd −/− mice [5]; heart rate response to propranolol, FIG. 4C)","mean arterial blood pressure (Sgcd −/− mice [6]; Sgcd −/− mice, Ang-(1-7) 300 ng/kg/min by osmotic minipump for 8 weeks from 3 weeks of age, vs untreated Sgcd −/−, FIG. 2A)","24 hour average heart rate (Sgcd −/− mice [6]; Sgcd −/− mice, Ang-(1-7) 300 ng/kg/min for 8 weeks, vs untreated Sgcd −/− controls, FIG. 2B)","24 hour average locomotor activity (Sgcd −/− mice [6]; Sgcd −/− mice, Ang-(1-7) 300 ng/kg/min for 8 weeks, vs untreated Sgcd −/−, FIG. 3)","levels of locomotion compared with Control C57BL6 mice (Sgcd −/− mice [6]; treated Sgcd −/− mice vs Control C57BL6 mice, FIG. 3)",AT1R receptor expression [7],"fibrosis of skeletal muscle (quadriceps) (Sgcd −/− mice [8]; Sgcd −/− mice, Ang-(1-7) 300 ng/kg/min for 8 weeks, vs untreated Sgcd −/−, FIG. 5)","levels of fibrosis compared with control C57BL6 mice (Sgcd −/− mice [8]; treated Sgcd −/− mice vs control C57BL6 mice, FIG. 5B)","fold improvement in exercise compared to saline control animals (Sgcd −/− mice [2]; TXA127 500 μg/kg/day, accumulated totals weeks 6-8, FIG. 9)"
Asp^1-Arg^2-Val^3-Ser^4-Ile^5-His^6-Cys^7 [TXA301] (DRVSIHC; bridge 4-7; also: cross link type between Ser4 and Cys7 not given here) [linear angiotensin (1-7) peptide],some improvement,significant improvement,significant increases,,,,,,,,,,,,,,
Asp^1-Arg^2-Val^3-Tyr^4-Ile^5-His^6-Pro^7 [Ang (1-7)],significantly reduced fibrosis,significant improvement,significant increases,significantly attenuated,strongly attenuated,essentially abrogated,essentially abrogated,essentially abrogated,essentially abrogated,not significantly affected,mildly decrease,reduction in locomotor activity was drastically reduced,did not vary significantly,essentially abrogates the increase in AT1R,markedly reduced,comparable to control C57BL6 mice,more than six fold improvement
Asp^1-Arg^2-Val^3-Ser^4-Ile^5-His^6-Cys^7 [PanCyte] (DRVSIHC; bridge 4-7; also: cross link type between Ser4 and Cys7 not given here) [cyclic angiotensin (1-7) peptide analog],no reduction in fibrosis was observed,,,,,,,,,,,,,,,,
